Results from patent US20050074834A1 (priority 2001, published 2005).
“Also recorded” adds a separate entry of the source. Structures can show the parent of a compound that is named as a salt.

Columns and labels:
[1] = tested on: xanthophores; format: cell-based
[2] = tested on: chromatophores
[3] = tested on: chromatophore/neuronal cell; format: cell-based
[4] = tested on: chromatophores; format: cell-based
[5] = tested on: fish chromatophores; format: cell-based
[6] = tested on: chromatophores; test: cells; settings: read-out: Threshold concentration PPM
[7] = tested on: chromatophore/bacterial cell; format: cell-based
[8] = tested on: chromatophore/protozoal cell; format: cell-based
[9] = tested on: iridophores; format: cell-based
[10] = tested on: melanophores; format: cell-based
[11] = tested on: erythrophores; format: cell-based
[12] = tested on: ryanodine receptors; settings: cited from earlier work
[13] = tested on: Betta splendens erythrophores; format: cell-based
[14] = tested on: chromatophore/fungal cell; format: cell-based
[15] = tested on: Betta chromatophores; format: cell-based, Betta splendens
[16] = tested on: Betta chromatophores; format: cell-based
[17] = tested on: Hemichromis bimaculatus chromatophores; format: cell-based
[18] = tested on: Betta splendens chromatophores; format: cell-based

## Cc1cc(C(C)(C)C)c(O)c(C)c1CC1=NCCN1 [Oxymetazoline]
[1]
  Chromatophore response Xanthophores: Disp.
[2]
  Threshold concentration PPB: XX (key: X=1 to 100 PPB; XX=100 to 1000 PPB)

## Nc1ncnc2c1ncn2[C@@H]1O[C@H](COP(=O)(O)OP(=O)(O)OP(=O)(O)O)[C@@H](O)[C@H]1O [ATP]
[3]
  2-Cell Cytosensor (second cell type included): Erythr. Aggr.
[2]
  Threshold concentration PPM: X (key: X=1 to 100 PPM; XX=100 to 1000 PPM)

## Cn1c(=O)c2c(ncn2C)n(C)c1=O [Caffeine]
[2]
  Threshold concentration PPB: XXX
[4]
  concentration printed for an analyte to which chromatophores respond: 100 µM

## Clc1cccc(Cl)c1N=C1NCCN1 [Clonidine]
[1]
  Chromatophore response Xanthophores: Disp.
[2]
  Threshold concentration PPB: XX (key: X=1 to 100 PPB; XX=100 to 1000 PPB)
[5]
  chromatophore response after forskolin and PMSF: no aggregation occurred
  chromatophore response in the absence of forskolin: aggregate; also recorded: aggregation
  chromatophore response in the presence of forskolin: unresponsive; also recorded: not detectable

## C[N+](C)(C)CCOC(N)=O [Carbachol]
[3]
  2-Cell Cytosensor (second cell type included): Erythr. Aggr.
[6]
  minimal effective concentration: 1 to 100 µg/mL

## [H]/N=C(/N)N[C@H]1[C@H](O)[C@@H](O)[C@H](O[C@@H]2O[C@@H](C)[C@](O)(C=O)[C@H]2O[C@@H]2O[C@@H](CO)[C@H](O)[C@@H](O)[C@@H]2NC)[C@@H](N/C(N)=N\[H])[C@@H]1O [Streptomycin]
[2]
  Response time Hr.: XX (key: X=1-6 hr; XX=6-24 hr)
[6]
  minimal effective concentration: 1 to 100 µg/mL
[7]
  2-Cell Cytosensor (second cell type included): Normal

## Cc1ncc([N+](=O)[O-])n1CCO [Metronidazole]
[8]
  2-Cell Cytosensor (second cell type included): Normal
[2]
  Response time Hr.: XX (key: X=1-6 hr; XX=6-24 hr)
[6]
  minimal effective concentration: 1 to 100 µg/mL

## CCN(CC)CCCC(C)Nc1ccnc2cc(Cl)ccc12 (centres unmarked) [Chloroquine]
[8]
  2-Cell Cytosensor (second cell type included): Normal
[2]
  Response time Hr.: XX (key: X=1-6 hr; XX=6-24 hr)
[6]
  minimal effective concentration: 100 to 1000 µg/mL

## CCOP(=O)(OCC)Oc1ccc([N+](=O)[O-])cc1 [Paraoxon]
[9]
  Chromatophore response Iridophores: Hue changes (FS)
[10]
  Chromatophore response Melanophores: A/I (FS)
[11]
  Chromatophore response Erythrophores: Aggr. (FS)

## c1ccc2c(CC3=NCCN3)cccc2c1 [Naphazoline]
[1]
  Chromatophore response Xanthophores: Disp.
[2]
  Threshold concentration PPB: XX (key: X=1 to 100 PPB; XX=100 to 1000 PPB)

## C=C[C@@]1(C)CC(=O)[C@]2(O)[C@@]3(C)[C@@H](O)CCC(C)(C)[C@@H]3[C@H](O)[C@H](OC(C)=O)[C@@]2(C)O1 [Forskolin]
[2]
  Threshold concentration PPB: XX (key: X=1 to 100 PPB; XX=100 to 1000 PPB)
[4]
  concentration printed for an analyte to which chromatophores respond: 0.01 µM

## Ryanodine
[2]
  Threshold concentration PPB: XX (key: X=1 to 100 PPB; XX=100 to 1000 PPB)
[12]
  concentrations at which ryanodine acts as an antagonist of the same receptors: > 1 µM
[13]
  Morphology Effect: Aggregation: Yes and No
  Morphology Effect: Dispersion: No
[11]
  Chromatophore response Erythrophores: Aggr.

## CCn1cc(C(=O)O)c(=O)c2ccc(C)nc21 [Nalidixic acid]
[2]
  Response time Hr.: XX (key: X=1-6 hr; XX=6-24 hr)
[6]
  minimal effective concentration: 1 to 100 µg/mL
[7]
  2-Cell Cytosensor (second cell type included): Normal

## COC(=O)C=C(C)OP(=O)(OC)OC [Mevinphos]
[9]
  Chromatophore response Iridophores: Hue change, then Imp.
[10]
  Chromatophore response Melanophores: Imp.
[2]
  Response time Hr.: X (key: X=1-6 hr; XX=6-24 hr)
[11]
  Chromatophore response Erythrophores: Imp. (FS)

## c1ccc2c(c1)CCCC2C1=NCCN1 (centres unmarked) [Tetrahydrozoline]
[1]
  Chromatophore response Xanthophores: Disp.
[2]
  Threshold concentration PPB: XX (key: X=1 to 100 PPB; XX=100 to 1000 PPB)

## Penicillin
[2]
  Response time Hr.: XX (key: X=1-6 hr; XX=6-24 hr)
  Threshold concentration PPM: X (key: X=1 to 100 PPM; XX=100 to 1000 PPM)
[7]
  2-Cell Cytosensor (second cell type included): Normal

## C[C@@H]1[C@H](O)[C@@H](C)/C=C/C=C/C=C/C=C/C=C/C=C/C=C/[C@H](O[C@@H]2O[C@H](C)[C@@H](O)[C@H](N)[C@@H]2O)C[C@@H]2O[C@](O)(C[C@@H](O)C[C@@H](O)[C@H](O)CC[C@@H](O)C[C@@H](O)CC(=O)O[C@H]1C)C[C@H](O)[C@H]2C(=O)O [Amphotericin B]
[2]
  Response time Hr.: XX (key: X=1-6 hr; XX=6-24 hr)
  Threshold concentration PPM: X (key: X=1 to 100 PPM; XX=100 to 1000 PPM)
[14]
  2-Cell Cytosensor (second cell type included): Normal

## C=C[C@H]1C[N@@]2CC[C@H]1C[C@H]2[C@H](O)c1ccnc2ccc(OC)cc12 [Quinine sulfate]
[8]
  2-Cell Cytosensor (second cell type included): Normal
[2]
  Response time Hr.: XX (key: X=1-6 hr; XX=6-24 hr)
[6]
  minimal effective concentration: 100 to 1000 µg/mL

## NC[C@H](O)c1ccc(O)c(O)c1 [Norepinephrine]
[15]
  response time of the cytosensor: less than 1 minute
[1]
  Chromatophore response Xanthophores: Disp.
[9]
  Chromatophore response Iridophores: Hue changes (FS)
[16]
  appearance of Betta chromatophores after exposure: aggregation of chromatophore pigment is apparent
[17]
  change of appearance of Hemichromis bimaculatus chromatophores: change the appearance

## Cholera toxin
[2]
  Response time Hr.: X (key: X=1-6 hr; XX=6-24 hr)
  Threshold concentration PPM: X (key: X=1 to 100 PPM; XX=100 to 1000 PPM)
[18]
  concentration at which inhibition of norepinephrine induced pigment aggregation is detected: ≥ 1 ng/mL
  effect on Betta splendens chromatophores: causes hyperdispersion
[16]
  chromatophore appearance after exposure: Pigment aggregation is evident
  pigment aggregation in response to norepinephrine after pre-incubation with CTX: impaired pigment aggregation in response to NE
  selective sensitivity of color classes of chromatophores: selective sensitivity of erythrophores to cholera toxin
[17]
  change of appearance of Hemichromis bimaculatus chromatophores: change the appearance
  erythrophore response upon norepinephrine exposure: impaired
  melanophore response upon challenge by norepinephrine: unimpaired
[11]
  Chromatophore response Erythrophores: Imp.
